Results: patent US7416722B2, “Concentrated, aqueous solutions of p-methoxybenzoic acid for use in cosmetic and dermatologic formulations” (Dr. Straetmans GmbH, priority 2005, dated 2008)
In brackets after ≈: the same amount, converted by molar mass.

Experiment: solubility of p-methoxybenzoic acid in water
Assay type: physicochemical
From the text: p-Methoxybenzoic acid can be obtained under the trade name of DERMOSOFT® 688 from Dr. Straetmans GmbH in a cosmetical grade. The solubility of p-methoxybenzoic acid in water is approximately […]. For use in a cosmetic formulation the product is usually brought into solution with sodium hydroxide or potassium hydroxide in a small amount of water at warm temperatures and worked into an aqueous phase. To evolve the spectrum of effects of p-methoxybenzoic acid completely, afterwards the formula should be re-acidified to a pH-value of 5.5. […] This may show, that the initial homogenous solutions are merely meta-stable systems.

- solubility: ~5000 µg/mL (≈ 32.9 mM)
SMILES: COc1ccc(C(=O)O)cc1 [p-methoxybenzoic acid]
